Oligonucleotides are written 5' to 3', each unit as a sugar letter and its base; * is a phosphorothioate linkage, no mark a phosphodiester; rarer units and linkages stand in square brackets, end groups in braces. Plain capitals give the bases only. e = 2'-O-(2-methoxyethyl) (MOE); [5mC] = 5-methylcytosine; d = 2'-deoxy (DNA)
tested on: murine TTC39B mRNA; experiment: Antisense inhibition of murine TTC39B in mouse primary hepatocytes, single dose; type: cell-based; details: 100 nM, cytofectin, ~24 h, vs untreated control; gapmers targeted to SEQ ID NO: 6
Experimental: Antisense oligonucleotides targeted to a TTC39B nucleic acid were tested for their effects on TTC39B mRNA in vitro. Cultured mouse primary hepatocytes at a density of 10,000 cells per well were transfected using cytofectin reagent with 100 nM antisense oligonucleotide. After a treatment period of approximately 24 hours, RNA was isolated from the cells and TTC39B mRNA levels were measured by quantitative real-time PCR. TTC39B mRNA levels were adjusted according to total RNA content, as measured by RIBOGREEN®. Results are presented as percent inhibition of TTC39B, relative to untreated control cells.
The chimeric antisense oligonucleotides in Tables 1 and 2 were designed as 5-10-5 MOE gapmers. The gapmers are 20 nucleotides in length, wherein the central gap segment is comprised of 10 2′-deoxynucleotides and is flanked on both sides (in the 5′ and 3′ directions) by wings comprising 5 nucleotides each. Each nucleotide in the 5′ wing segment and each nucleotide in the 3′ wing segment has a 2′-MOE modification. The internucleoside linkages throughout each gapmer are phosphorothioate (P═S) linkages. All cytosine residues throughout each gapmer are 5-methylcytosines. “Target start site” indicates the 5′-most nucleotide to which the gapmer is targeted. “Target stop site” indicates the 3′-most nucleotide to which the gapmer is targeted. Each gapmer listed in Table 1 is targeted to SEQ ID NO: 6 (GENBANK Accession No. NM_027238.2) and each gapmer listed in Table 2 is targeted to SEQ ID NO: 10 (the complement of GENBANK Accession No. NT—039260.7 truncated at nucleotides 22491001 to 22601000), SEQ ID NO: 11 (GENBANK Accession No. BY244623.1), SEQ ID NO: 12 (GENBANK Accession No. BY260936), SEQ ID NO: 13 (GENBANK Accession No. BM935568.1) or SEQ ID NO: 14 (GENBANK Accession No. BY728780.1).

Sequence | % inhibition of murine TTC39B mRNA [%]
AATGCCACCACCTTCAACCA (antisense eA*eA*eT*eG*e[5mC]*d[5mC]*dA*d[5mC]*d[5mC]*dA*d[5mC]*d[5mC]*dT*dT*d[5mC]*eA*eA*e[5mC]*e[5mC]*eA) [ISIS 447138] | 65
GCGCCTTCCCGGAGCTGCAG (antisense eG*e[5mC]*eG*e[5mC]*e[5mC]*dT*dT*d[5mC]*d[5mC]*d[5mC]*dG*dG*dA*dG*d[5mC]*eT*eG*e[5mC]*eA*eG) [ISIS 447116] | 56
GGCAGAGTATAAGAATTTCT (antisense eG*eG*e[5mC]*eA*eG*dA*dG*dT*dA*dT*dA*dA*dG*dA*dA*eT*eT*eT*e[5mC]*eT) [ISIS 447133] | 56
GGCTCTGGGTTCAGCCCAGC (antisense eG*eG*e[5mC]*eT*e[5mC]*dT*dG*dG*dG*dT*dT*d[5mC]*dA*dG*d[5mC]*e[5mC]*e[5mC]*eA*eG*e[5mC]) [ISIS 447098] | 44
GTCCGATGGAGATCTAGAGA (antisense eG*eT*e[5mC]*e[5mC]*eG*dA*dT*dG*dG*dA*dG*dA*dT*d[5mC]*dT*eA*eG*eA*eG*eA) [ISIS 447102] | 84
GTTCCGGATCAGTCCGTGGA (antisense eG*eT*eT*e[5mC]*e[5mC]*dG*dG*dA*dT*d[5mC]*dA*dG*dT*d[5mC]*d[5mC]*eG*eT*eG*eG*eA) [ISIS 447132] | 58
GTTTTTCACTTTCCACAACG (antisense eG*eT*eT*eT*eT*dT*d[5mC]*dA*d[5mC]*dT*dT*dT*d[5mC]*d[5mC]*dA*e[5mC]*eA*eA*e[5mC]*eG) [ISIS 447128] | 56
TACAGACCATGAGCTTTGAT (antisense eT*eA*e[5mC]*eA*eG*dA*d[5mC]*d[5mC]*dA*dT*dG*dA*dG*d[5mC]*dT*eT*eT*eG*eA*eT) [ISIS 447145] | 61
TAGTAATACGCCTGCATCCA (antisense eT*eA*eG*eT*eA*dA*dT*dA*d[5mC]*dG*d[5mC]*d[5mC]*dT*dG*d[5mC]*eA*eT*e[5mC]*e[5mC]*eA) [ISIS 447121] | 53
TCATATTTTCATCCTGCACA (antisense eT*e[5mC]*eA*eT*eA*dT*dT*dT*dT*d[5mC]*dA*dT*d[5mC]*d[5mC]*dT*eG*e[5mC]*eA*e[5mC]*eA) [ISIS 447109] | 41
TCCAAGGCATCTTCAAAGAT (antisense eT*e[5mC]*e[5mC]*eA*eA*dG*dG*d[5mC]*dA*dT*d[5mC]*dT*dT*d[5mC]*dA*eA*eA*eG*eA*eT) [ISIS 447101] | 36
TCCACCTTGGCTGATGAACC (antisense eT*e[5mC]*e[5mC]*eA*e[5mC]*d[5mC]*dT*dT*dG*dG*d[5mC]*dT*dG*dA*dT*eG*eA*eA*e[5mC]*e[5mC]) [ISIS 447104] | 48
TCCACTCGGCTGCCCACGAG (antisense eT*e[5mC]*e[5mC]*eA*e[5mC]*dT*d[5mC]*dG*dG*d[5mC]*dT*dG*d[5mC]*d[5mC]*d[5mC]*eA*e[5mC]*eG*eA*eG) [ISIS 447100] | 62
TCCAGAGATGAAGAGCTGCT (antisense eT*e[5mC]*e[5mC]*eA*eG*dA*dG*dA*dT*dG*dA*dA*dG*dA*dG*e[5mC]*eT*eG*e[5mC]*eT) [ISIS 447131] | 60
TCTGGAAGCATGCTCAAAAT (antisense eT*e[5mC]*eT*eG*eG*dA*dA*dG*d[5mC]*dA*dT*dG*d[5mC]*dT*d[5mC]*eA*eA*eA*eA*eT) [ISIS 447124] | 60
TCTTCACTCAGTTGTTCCAG (antisense eT*e[5mC]*eT*eT*e[5mC]*dA*d[5mC]*dT*d[5mC]*dA*dG*dT*dT*dG*dT*eT*e[5mC]*e[5mC]*eA*eG) [ISIS 447108] | 49
TGTTTCCAGAAAATCCAATA (antisense eT*eG*eT*eT*eT*d[5mC]*d[5mC]*dA*dG*dA*dA*dA*dA*dT*d[5mC]*e[5mC]*eA*eA*eT*eA) [ISIS 447115] | 56
TTATACAAAAATGCCAACTC (antisense eT*eT*eA*eT*eA*d[5mC]*dA*dA*dA*dA*dA*dT*dG*d[5mC]*d[5mC]*eA*eA*e[5mC]*eT*e[5mC]) [ISIS 447129] | 34
TTCTTACAAACATCCTAAGA (antisense eT*eT*e[5mC]*eT*eT*dA*d[5mC]*dA*dA*dA*d[5mC]*dA*dT*d[5mC]*d[5mC]*eT*eA*eA*eG*eA) [ISIS 447148] | 54
TTTGGCAGGTTTGTAAAGCG (antisense eT*eT*eT*eG*eG*d[5mC]*dA*dG*dG*dT*dT*dT*dG*dT*dA*eA*eA*eG*e[5mC]*eG) [ISIS 447107] | 61

same assay, conditions: 100 nM, cytofectin, ~24 h, vs untreated control; gapmers targeted to SEQ ID NO: 10-14

Sequence | % inhibition of murine TTC39B mRNA [%]
GCCAGCCAGGGCAGGCACTC (antisense eG*e[5mC]*e[5mC]*eA*eG*d[5mC]*d[5mC]*dA*dG*dG*dG*d[5mC]*dA*dG*dG*e[5mC]*eA*e[5mC]*eT*e[5mC]) [ISIS 447163] | 50
GCCCATGCACGGGTGGAGGA (antisense eG*e[5mC]*e[5mC]*e[5mC]*eA*dT*dG*d[5mC]*dA*d[5mC]*dG*dG*dG*dT*dG*eG*eA*eG*eG*eA) [ISIS 447156] | 16
GCTTACCTTGGACCATTTAC (eG*e[5mC]*eT*eT*eA*d[5mC]*d[5mC]*dT*dT*dG*dG*dA*d[5mC]*d[5mC]*dA*eT*eT*eT*eA*e[5mC]; antisense) [ISIS 447173] | 59
GGAGATGTGTGTACGGCAGC (antisense eG*eG*eA*eG*eA*dT*dG*dT*dG*dT*dG*dT*dA*d[5mC]*dG*eG*e[5mC]*eA*eG*e[5mC]) [ISIS 447161] | 14
GGTGCCCGGACCAGCCCGCT (antisense eG*eG*eT*eG*e[5mC]*d[5mC]*d[5mC]*dG*dG*dA*d[5mC]*d[5mC]*dA*dG*d[5mC]*e[5mC]*e[5mC]*eG*e[5mC]*eT) [ISIS 447158] | 39
GTTTCTTGAGCCTATAAGTC (eG*eT*eT*eT*e[5mC]*dT*dT*dG*dA*dG*d[5mC]*d[5mC]*dT*dA*dT*eA*eA*eG*eT*e[5mC]; antisense) [ISIS 447172] | 54
TATGGAGAAGCAGATGGCCT (eT*eA*eT*eG*eG*dA*dG*dA*dA*dG*d[5mC]*dA*dG*dA*dT*eG*eG*e[5mC]*e[5mC]*eT; antisense) [ISIS 447175] | 56
TCCAGATCATTATGTTTACA (eT*e[5mC]*e[5mC]*eA*eG*dA*dT*d[5mC]*dA*dT*dT*dA*dT*dG*dT*eT*eT*eA*e[5mC]*eA; antisense) [ISIS 447174] | 50
TCCGGTGCGCACCCAGTACC (antisense eT*e[5mC]*e[5mC]*eG*eG*dT*dG*d[5mC]*dG*d[5mC]*dA*d[5mC]*d[5mC]*d[5mC]*dA*eG*eT*eA*e[5mC]*e[5mC]) [ISIS 447155] | 23
TGTCCGATGGAGATTGTTAA (antisense eT*eG*eT*e[5mC]*e[5mC]*dG*dA*dT*dG*dG*dA*dG*dA*dT*dT*eG*eT*eT*eA*eA) [ISIS 447164] | 0
TTCCAGCTCGGCTGCGCCAC (antisense eT*eT*e[5mC]*e[5mC]*eA*dG*d[5mC]*dT*d[5mC]*dG*dG*d[5mC]*dT*dG*d[5mC]*eG*e[5mC]*e[5mC]*eA*e[5mC]) [ISIS 447157] | 21

tested on: murine TTC39B mRNA; experiment: Dose-dependent antisense inhibition of murine TTC39B in mouse primary hepatocytes (Example 2); type: cell-based; details: 25 nM, cytofectin, ~16 h
Experimental: Cells were plated at a density of 10,000 cells per well and transfected using cytofectin reagent with 25 nM, 50 nM, 100 nM, and 200 nM concentrations of antisense oligonucleotide, as specified in Table 3. After a treatment period of approximately 16 hours, RNA was isolated from the cells and TTC39B mRNA levels were measured by quantitative real-time PCR. Murine primer probe set mTtc39b_LTS00287 (forward sequence: […], incorporated herein as SEQ ID NO: 94; reverse sequence: […], incorporated herein as SEQ ID NO: 95; probe sequence: […], incorporated herein as SEQ ID NO: 96) was used to measure mRNA levels. TTC39B mRNA levels were adjusted according to total RNA content, as measured by RIBOGREEN®. Results are presented as percent inhibition of TTC39B, relative to untreated control cells.

Sequence | percent inhibition of TTC39B mRNA [%]
AATGCCACCACCTTCAACCA (antisense eA*eA*eT*eG*e[5mC]*d[5mC]*dA*d[5mC]*d[5mC]*dA*d[5mC]*d[5mC]*dT*dT*d[5mC]*eA*eA*e[5mC]*e[5mC]*eA) [ISIS 447138] | 20

same assay, conditions: 50 nM, cytofectin, ~16 h

Sequence | percent inhibition of TTC39B mRNA [%]
AATGCCACCACCTTCAACCA (antisense eA*eA*eT*eG*e[5mC]*d[5mC]*dA*d[5mC]*d[5mC]*dA*d[5mC]*d[5mC]*dT*dT*d[5mC]*eA*eA*e[5mC]*e[5mC]*eA) [ISIS 447138] | 49

same assay, conditions: 100 nM, cytofectin, ~16 h

Sequence | percent inhibition of TTC39B mRNA [%]
AATGCCACCACCTTCAACCA (antisense eA*eA*eT*eG*e[5mC]*d[5mC]*dA*d[5mC]*d[5mC]*dA*d[5mC]*d[5mC]*dT*dT*d[5mC]*eA*eA*e[5mC]*e[5mC]*eA) [ISIS 447138] | 68

same assay, conditions: 200 nM, cytofectin, ~16 h

Sequence | percent inhibition of TTC39B mRNA [%]
AATGCCACCACCTTCAACCA (antisense eA*eA*eT*eG*e[5mC]*d[5mC]*dA*d[5mC]*d[5mC]*dA*d[5mC]*d[5mC]*dT*dT*d[5mC]*eA*eA*e[5mC]*e[5mC]*eA) [ISIS 447138] | 86
